± gives the expanded uncertainty stated by the source.
Assay: refractive index (Na D-line) (dimensionless)
Conditions: 298.15 K; 101.33 kPa; Liquid; Abbe refractometer

| Structure (SMILES) | refractive index |
| --- | --- |
| Cc1ccccc1C [1,2-dimethylbenzene] | 1.5018 ± 0.0005 |
| Cc1cccc(C)c1 [1,3-dimethylbenzene] | 1.4943 ± 0.0005 |
| Cc1ccc(C)cc1 [1,4-dimethylbenzene] | 1.4925 ± 0.0005 |
| c1ccccc1 [benzene] | 1.499 ± 0.0004 |
| CCCCCCCCCCCC [dodecane] | 1.4275 ± 0.0005 |
| CCCCCCCCCCCCCCCC [hexadecane] | 1.4325 ± 0.0005 |
| CCCCCC [hexane] | 1.3728 ± 0.0005 |
| Cc1ccccc1 [toluene] | 1.494 ± 0.0004 |

— the NIST ThermoML archive (doi:10.1021/je010317u)
